This experiment addresses T1, APOL1 (Homo sapiens, UniProt O14791).
T1 sequence (O14791 1-398 S342G/I384M): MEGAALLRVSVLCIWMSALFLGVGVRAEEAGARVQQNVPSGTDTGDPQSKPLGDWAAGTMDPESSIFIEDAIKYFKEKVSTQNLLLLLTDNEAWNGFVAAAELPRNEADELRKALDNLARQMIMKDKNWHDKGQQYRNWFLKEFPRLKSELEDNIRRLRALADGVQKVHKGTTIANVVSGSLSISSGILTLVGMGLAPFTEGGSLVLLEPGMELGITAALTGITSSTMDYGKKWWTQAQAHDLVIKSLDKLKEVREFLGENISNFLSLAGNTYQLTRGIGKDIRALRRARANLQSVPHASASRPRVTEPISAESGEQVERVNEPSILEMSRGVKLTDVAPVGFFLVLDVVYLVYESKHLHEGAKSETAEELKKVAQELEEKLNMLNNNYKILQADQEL
Kind of experiment: MultiTox-Fluor Multiplex Cytotoxicity Assay in tet-inducible APOL1 T-REx-HEK293 cells (cell rescue, ratio of dead to live cells). The conditions noted are these: tet-inducible transgenic APOL1 T-REx-HEK293 cell lines, 50 ng/mL tet, 24 hours; read-out: IP50 (i.e., IC50 for cell proliferation). Format: cell-based. The gist of the method:
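T-REx-HEK293 cells with tet-inducible APOL1 were treated with compound (10 μM top, 10-point 3-fold dilution, duplicate) plus 50 ng/mL tetracycline for 24 h at 37° C, in DMEM with 2% tet-free FBS. MultiTox-Fluor protease signals gave a dead/live ratio, normalized to no tet (100% viability) and tet alone (0%).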

Take `CCc1cc2c(s1)CCOC21CCN(Cc2cn(CCN3CCC(O)C3)nn2)CC1` (centres unmarked) [Compound 1104]: the IC50 is 500 to 1000 nM.
Next, `CCc1cc2c(s1)CCOC21CCN(Cc2cn(C3CC(F)(F)C3)nn2)CC1` [Compound 1105]: 500 to 1000 nM.
Consider `CCc1cc2c(s1)CCOC21CCN(Cc2cn(Cc3cc(C(N)=O)co3)nn2)CC1` [Compound 1106], for which the IC50 was 500 to 1000 nM.
In the case of `CCc1cc2c(s1)CCOC21CCN(Cc2cn(CC(=O)NC)nn2)CC1` [Compound 1107] it was 500 to 1000 nM; in that of `CCc1cc2c(s1)CCOC21CCN(Cc2cn(Cc3cc(COC)[nH]n3)nn2)CC1` [Compound 1108], 500 to 1000 nM.
Next, `CCc1cc2c(s1)CCOC21CCN(Cc2cn(CCc3noc(C)n3)nn2)CC1` [Compound 1109]: 500 to 1000 nM; `CCc1cc2c(s1)CCOC21CCN(Cc2cn(C[C@H]3CC[C@@H](CO)O3)nn2)CC1` [Compound 1110]: 500 to 1000 nM.
In the case of `CCc1cc2c(s1)CCOC21CCN(Cc2cn(CCC(=O)NCCO)nn2)CC1` [Compound 1111] it was 500 to 1000 nM; in that of `CCc1cc2c(s1)CCOC21CCN(Cc2cn(C3CC3)nn2)CC1` [Compound 1112], 500 to 1000 nM.
With `CCc1cc2c(s1)CCOC21CCN(Cc2cn(CC3CCOCC3)nn2)CC1` [Compound 1113], the IC50 was in the range of 500 to 1000 nM.
As for `CCc1cc2c(s1)CCOC21CCN(Cc2cn(CCC(N)=O)nn2)CC1` [Compound 1114], the IC50 lay within 500 to 1000 nM.
Next, `CCc1cc2c(s1)CCOC21CCN(Cc2cn(CCCN3CC(O)C3)nn2)CC1` [Compound 1115]: 500 to 1000 nM; `CCc1cc2c(s1)CCOC21CCN(Cc2cn(C3CCN(C(C)=O)CC3)nn2)CC1` [Compound 1116]: 500 to 1000 nM.
Next, `CCc1cc2c(s1)CCOC21CCN(Cc2cn(C(C)C(=O)NCCO)nn2)CC1` (centres unmarked) [Compound 1117]: 500 to 1000 nM.
In the case of `CCc1cc2c(s1)CCOC21CCN(Cc2cn(CC3CNC(=O)O3)nn2)CC1` (centres unmarked) [Compound 1118] it was 500 to 1000 nM; in that of `CCc1cc2c(s1)CCOC21CCN(Cc2cn(C(C)C(=O)NCC(C)O)nn2)CC1` (centres unmarked) [Compound 1119], 500 to 1000 nM; in that of `CCc1cc2c(s1)CCOC21CCN(Cc2cn(CCC(=O)NC)nn2)CC1` [Compound 1120], 500 to 1000 nM.
For the compound `CCc1cc2c(s1)CCOC21CCN(Cc2cn(C(C)C(=O)NCCC(F)(F)F)nn2)CC1` (centres unmarked) [Compound 1121], the IC50 lay in the range of 500 to 1000 nM.
In the case of `CCc1cc2c(s1)CCOC21CCN(Cc2cn(CC(=O)NC3COC3)nn2)CC1` [Compound 1122] it was 500 to 1000 nM.
Next, `CCc1cc2c(s1)CCOC21CCN(Cc2cn(C3CCC3(F)F)nn2)CC1` (centres unmarked) [Compound 1123]: 500 to 1000 nM; `CCc1cc2c(s1)CCOC21CCN(Cc2cn(Cc3ccc(=O)[nH]c3)nn2)CC1` [Compound 1124]: 500 to 1000 nM; `CCc1cc2c(s1)CCOC21CCN(Cc2cn(Cc3ccc[nH]c3=O)nn2)CC1` [Compound 1125]: 500 to 1000 nM.
In the case of `CCc1cc2c(s1)CCOC21CCN(Cc2cc3nc(OC)ccc3[nH]2)CC1` [Compound 1126, 2′-ethyl-1-((5-methoxy-1H-pyrrolo[3,2-b]pyridin-2-yl)methyl)-6′,7′-dihydrospiro[piperidine-4,4′-thieno[3,2-c]pyran]] it was under 100 nM.
As for `CCc1cc2c(s1)CCOC21CCN(Cc2cnn(CCS(=O)(=O)NC)c2)CC1` [Compound 1127], the IC50 was under 100 nM.
In the case of `CCc1cc2c(s1)CCOC21CCN(Cc2ccc3[nH]ncc3c2)CC1` [Compound 1128], the IC50 is under 100 nM.
In the case of `CCc1cc2c(s1)CCOC21CCN(Cc2ccc(NS(C)(=O)=O)cc2)CC1` [Compound 1129] it was 100 to 500 nM; in that of `CCc1cc2c(s1)CCOC21CCN(Cc2cnn(CCS(C)(=O)=O)c2)CC1` [Compound 1130], 100 to 500 nM.
Next, `CCc1cc2c(s1)CCOC21CCN(Cc2cnn(CCS(=O)(=O)N(C)C)c2)CC1` [Compound 1131]: 100 to 500 nM; `CCc1cc2c(s1)CCOC21CCN(Cc2cnc(NC(=O)COCCOC)s2)CC1` [Compound 1132]: 100 to 500 nM; `CCc1cc2c(s1)CCOC21CCN(Cc2cn[nH]c2)CC1` [Compound 1133]: 100 to 500 nM.
Next, `CCc1cc2c(s1)CCOC21CCN(Cc2cnc(N)s2)CC1` [Compound 1134]: 100 to 500 nM; `CCc1cc2c(s1)CCOC21CCN(Cc2cnn(C(C)=O)c2)CC1` [Compound 1135]: 100 to 500 nM.
Turning to `CCc1cc2c(s1)CCOC21CCN(Cc2cnc(-c3cccnc3)s2)CC1` [Compound 1136], the IC50 lay in the range of 100 to 500 nM.
Next, `CCc1cc2c(s1)CCOC21CCN(Cc2cnc(N3CCCCC3)s2)CC1` [Compound 1137]: 100 to 500 nM; `CCc1cc2c(s1)CCOC21CCN(Cc2cnn(C)c2)CC1` [Compound 1138]: 100 to 500 nM; `CCc1cc2c(s1)CCOC21CCN(Cc2csc(-c3cccnc3)n2)CC1` [Compound 1139]: 500 to 1000 nM.
In the case of `CCc1cc2c(s1)CCOC21CCN(Cc2cnc(-c3ccccn3)s2)CC1` [Compound 1140] it was 500 to 1000 nM.
In the case of `CCc1cc2c(s1)CCOC21CCN(Cc2c[nH]cn2)CC1` [Compound 1141] it was 500 to 1000 nM; in that of `CCc1cc2c(s1)CCOC21CCN(Cc2cncs2)CC1` [Compound 1142], 500 to 1000 nM; in that of `CCc1cc2c(s1)CCOC21CCN(Cc2cnc(C(C)O)s2)CC1` (centres unmarked) [Compound 1143], 500 to 1000 nM.
With `CCc1cc2c(s1)CCOC21CCN(Cc2cnc(C(F)(F)F)[nH]2)CC1` [Compound 1144], the IC50 fell in the range of 500 to 1000 nM.
Next, `CCc1cc2c(s1)CCOC21CCN(Cc2nc(-c3ccccc3)[nH]c2Cl)CC1` [Compound 1145]: 500 to 1000 nM.
`CCc1cc2c(s1)CCOC21CCN(Cc2csc(N3CCOCC3)n2)CC1` [Compound 1146]: the IC50 fell in the range of 500 to 1000 nM.
Take `CCc1cc2c(s1)CCOC21CCN(Cc2csc(C(F)(F)F)n2)CC1` [Compound 1147]: the IC50 was in the range of 500 to 1000 nM.
In the case of `CCc1cc2c(s1)CCOC21CCN(Cc2ccc(S(C)(=O)=O)cc2)CC1` [Compound 1148] it was 500 to 1000 nM; in that of `CCc1cc2c(s1)CCOC21CCN(CC2CN(C(=O)OC(C)(C)C)C2)CC1` [Compound 1149], 500 to 1000 nM.
For the compound `CCc1cc2c(s1)CCOC21CCN(CC2CCN(C(=O)OC(C)(C)C)CC2)CC1` [Compound 1150], the IC50 is 500 to 1000 nM.
Next, `CCc1cc2c(s1)CCOC21CCN(CC2CCN(S(C)(=O)=O)CC2)CC1` [Compound 1151]: 500 to 1000 nM; `CCc1cc2c(s1)CCOC21CCN(Cc2cc(O)ccn2)CC1` [Compound 1152]: 500 to 1000 nM.
As to `CCc1cc2c(s1)CCOC21CCN(Cc2ccncc2)CC1` [Compound 1153], the IC50 lay within 500 to 1000 nM.
In the case of `CCc1cc2c(s1)CCOC21CCN(Cc2ccc(S(C)(=O)=O)cc2F)CC1` [Compound 1154] it was 500 to 1000 nM; in that of `CCc1cc2c(s1)CCOC21CCN(CC2CC2)CC1` [Compound 1155], 500 to 1000 nM.
In the case of `CCc1cc2c(s1)CCOC21CCN(Cc2cncnc2)CC1` [Compound 1156] it was 500 to 1000 nM; in that of `CCc1cc2c(s1)CCOC21CCN(Cc2ccc(OC)nc2)CC1` [Compound 1157], 100 to 500 nM; in that of `CCc1cc2c(s1)CCOC21CCN(Cc2cn(C)nn2)CC1` [Compound 1158], 500 to 1000 nM.
As for `CCc1cc2c(s1)CCOC21CCN(Cc2ccc(NS(=O)(=O)CCCO)cc2)CC1` [Compound 1159, N-(4-((2′-ethyl-6′,7′-dihydrospiro[piperidine-4,4′-thieno[3,2-c]pyran]-1-yl)methyl)phenyl)-3-hydroxypropane-1-sulfonamide], the IC50 was under 100 nM.
Next, `CCc1cc2c(s1)CCOC21CCN(Cc2ccc(NCc3cc[nH]c(=O)c3)cc2)CC1` [Compound 1162]: 100 to 500 nM; `CCc1cc2c(s1)CCOC21CCN(Cc2ccc(NS(=O)(=O)C3CC3)cc2)CC1` [Compound 1163]: 100 to 500 nM; `Clc1cc2c(s1)CCOC21CCN(Cc2cn[nH]c2)CC1` [Compound 1165, 2-chloro-1′-(1H-pyrazol-4-ylmethyl)spiro[6,7-dihydrothieno[3,2-c]pyran-4,4′-piperidine]]: 100 to 500 nM.
In the case of `CC(=O)n1cc(CN2CCC3(CC2)OCCc2sc(Cl)cc23)cn1` [Compound 1166] it was 100 to 500 nM; in that of `Cn1cc(CN2CCC3(CC2)OCCc2sc(C(F)(F)F)cc23)cn1` [Compound 1167], 100 to 500 nM.
Next, `Cn1cc(CN2CCC3(CC2)OCCc2sc(Cl)cc23)cn1` [Compound 1168]: 500 to 1000 nM; `CS(=O)(=O)CCn1cc(CN2CCC3(CC2)OCCc2cc(Cl)sc23)cn1` [Compound 1169, 2′-chloro-1-((1-(2-(methylsulfonyl)ethyl)-1H-pyrazol-4-yl)methyl)-4′,5′-dihydrospiro[piperidine-4,7′-thieno[2,3-c]pyran]]: 100 to 500 nM.
For the compound `CCc1cc2c(s1)C[C@@H](C)OC21CCN(Cc2cnn(C)c2)CC1` [Compound 1176], the IC50 lay in the range of 500 to 1000 nM.
Next, `CNS(=O)(=O)CCn1cc(CN2CCC3(CC2)OCC(C)(C)c2sc(Cl)cc23)cn1` [Compound 1177, 2-[4-[(2-chloro-7,7-dimethyl-spiro[6H-thieno[3,2-c]pyran-4,4′-piperidine]-1′-yl)methyl]pyrazol-1-yl]-N-methyl-ethanesulfonamide]: under 100 nM.

These data come from patent US20250171459A1, “2-METHYL-4',5'-DIHYDROSPIRO[PIPERIDINE-4,7'-THIENO[2,3-C]PYRAN] DERIVATIVES AS INHIBITORS OF APOL1 AND METHODS OF USING SAME” (Vertex Pharmaceuticals Incorporated, priority 2022, published 2025).
